Patent US11292788B2, “IL-17 and IFN-gamma inhibition for the treatment of autoimmune diseases and chronic inflammation” (Immunic AG, priority 2017, dated 2022)
Converted amounts (≈) assume the structure as drawn. Like-named read-outs stand apart in the source and are kept apart here.

Key:
[1] = system: IL-17F; assay: Cytokine assay: IL-17F production by human PBMC stimulated with PHA; format: cell-based; conditions: IC50 class, read-out: IL-17F Inhib.
Procedure, shortened: (§1)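 Human donor PBMC (1×10^5 cells/well) were activated with 2 μg/ml PHA and exposed to compounds for 48 h. Supernatant IL-17A, IL-17F and IFN-γ were measured by Luminex or ELISA. Screening used 10, 1, 0.1 and 0.01 μM; IC50 values came from semilogarithmic titrations.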

[2] = Aqueous solubility in 50 mM phosphate buffer (HPLC/DAD); format: physicochemical; conditions: aqueous solubility class; for solubility at 24 h: 50 mM phosphate buffer, 23 °C, pH 7.4, aqueous buffer, kinetic from dmso stock, read-out: aq. solub.
Protocol: To achieve this, the samples (final volume 500 μl, 200 μM compound concentration) were incubated for 24 hours at 23° C. under continuous shaking at 1400 rpm (Thermomixer, Eppendorf) in aqueous phosphate buffers (pH 4.0, 6.0, 7.4 and 9.0) with a final DMSO concentration of 1%. To separate the undissolved compound from the solution, the samples were centrifuged (30 min 18000 g at 23° C.). Supernatants were measured via HPLC equipped with a UV detector and concentrations were calculated according to signals of a standard curve. The standard curve was prepared by diluting a stock solution of each compound (c=0.1 mg/ml; received by adding 10 μl of 20 mM compound in DMSO to 914 μl MeCN) in a certain amount of MeCN to cover a range of 0.1 to 200 μg/ml.

[3] = Microsomal stability: incubation with human liver microsomes, residual parent compound by HPLC-MS/MS; format: in vitro ADME; conditions: up to 60 min; for half-life at 1 μM: read-out: t1/2 hLM
Procedure, shortened: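 Compound at 1 μM final with 0.5 mg/ml pooled human liver microsomes and NADPH regenerating system, 0.1 M potassium phosphate pH 7.4, 0.4% DMSO, 37° C, sampled up to 60 min. Residual parent measured by HPLC-MS/MS; half-life and clearance from slope of remaining % of T0.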

[4] = system: INF-γ; assay: Cytokine assay: INF-γ production by human PBMC stimulated with PHA; format: cell-based; conditions: IC50 class, read-out: IFN-gamma Inhib.
Procedure, shortened: as §1

[5] = system: IL-17A; assay: Cytokine assay: IL-17A production by human PBMC stimulated with PHA; format: cell-based; conditions: IC50 class, read-out: IL-17A Inhib.
Procedure, shortened: as §1

[6] = human liver microsomes 0.5 mg/ml, compound 1 μM, pH 7.4, 37° C.

| Compound | IC50 ([1]; Homo sapiens, PBMC) [nM] | solubility at 24 h [2] [µM] | half-life at 1 μM ([3]; pH 7.4, human liver microsomes, 1 μM compound, 0.5 mg/ml HLM, 37° C.) [min] | IC50 ([4]; Homo sapiens, PBMC) [nM] | IC50 ([5]; Homo sapiens, PBMC) [nM] | half-life at 1 μM [3, 6] [min] | IC50 [1] [nM] | aq. solub. [2] | IC50 [4] [nM] | IC50 [5] [nM] | t1/2 hLM [3, 6] |
| --- | --- | --- | --- | --- | --- | --- | --- | --- | --- | --- | --- |
| CCOC(=O)c1c(-c2c(F)cccc2Cl)noc1-c1cnn(CC(C)(C)O)c1C(F)(F)F [Example 8, ethyl 3-(2-chloro-6-fluorophenyl)-5-(1-(2-hydroxy-2-methylpropyl)-5-(trifluoromethyl)-1H-pyrazol-4-yl)isoxazole-4-carboxylate] | 50 to 500 | 3 to 9.99 (≈ 1.43 to 4.75 µg/mL) |  | < 50 | < 50 | > 100 |  |  |  |  |  |
| COC(=O)c1c(-c2c(F)cccc2Cl)noc1-c1cnn([C@H]2C[C@](C)(O)C2)c1C(F)(F)F [Example 26, methyl 3-(2-chloro-6-fluorophenyl)-5-(1-(3-hydroxy-3-methylcyclobutyl)-5-(trifluoromethyl)-1H-pyrazol-4-yl)isoxazole-4-carboxylate] |  |  |  |  |  | 40 to 100 | 500 to 5000 | + (+: 1-2.99 μM) | 500 to 5000 | 500 to 5000 |  |
| COC(=O)c1c(-c2c(F)cccc2Cl)noc1-c1cnn([C@H]2C[C@](C)(O)C2)c1C(F)(F)F [Example 27, methyl 3-(2-chloro-6-fluorophenyl)-5-(1-(3-hydroxy-3-methylcyclobutyl)-5-(trifluoromethyl)-1H-pyrazol-4-yl)isoxazole-4-carboxylate] |  |  |  |  |  |  | < 50 | ++ (++: 3-9.99 μM) | < 50 | < 50 | ++ (++: 40-100 min) |
| CC(=O)c1c(-c2c(F)cccc2Cl)noc1-c1cnn(C[C@@H](C)O)c1C(F)(F)F [Example 35, 1-[3-(2-chloro-6-fluorophenyl)-5-{1-[(2R)-2-hydroxypropyl]-5-(trifluoromethyl)-1H-pyrazol-4-yl}-1,2-oxazol-4-yl]ethan-1-one] | 50 to 500 | > 10 |  | 50 to 500 | 50 to 500 | 40 to 100 |  |  |  |  |  |
| C[C@@H](O)Cn1ncc(-c2onc(-c3c(F)cccc3Cl)c2C(=O)NC2CCCC2)c1C(F)(F)F [Example 44, 3-(2-chloro-6-fluorophenyl)-N-cyclopentyl-5-{1-[1-(2R)-2-hydroxypropyl]-5-(trifluoromethyl)-1H-pyrazol-4-yl}-1,2-oxazole-4-carboxamide] | 500 to 5000 | > 10 |  | 50 to 500 | 50 to 500 | 2 to 9.99 |  |  |  |  |  |
| C[C@]1(O)C[C@H](n2ncc(-c3onc(-c4ccccc4Cl)c3C(=O)OC3CC3)c2C(F)(F)F)C1 [Example 49, cyclopropyl 3-(2-chlorophenyl)-5-(1-(3-hydroxy-3-methylcyclobutyl)-5-(trifluoromethyl)-1H-pyrazol-4-yl)isoxazole-4-carboxylate] |  | 1 to 2.99 (≈ 0.482 to 1.44 µg/mL) |  |  |  | > 100 | < 50 |  | < 50 | < 50 |  |
| C[C@H](O)Cn1ncc(-c2onc(-c3c(F)cccc3Cl)c2C(=O)OC2COC2)c1C(F)(F)F [Example 60, oxetan-3-yl 3-(2-chloro-6-fluorophenyl)-5-{1-[(2S)-2-hydroxypropyl]-5-(trifluoromethyl)-1H-pyrazol-4-yl}-1,2-oxazole-4-carboxylate] | 50 to 500 | > 10 |  | 50 to 500 | 50 to 500 | 10 to 40 |  |  |  |  |  |
| COCc1c(-c2c(F)cccc2Cl)noc1-c1cnn(CCC(C)(C)O)c1C(F)(F)F [Example 67, 4-{4-[3-(2-chloro-6-fluorophenyl)-4-(methoxymethyl)-1,2-oxazol-5-yl]-5-(trifluoromethyl)-1H-pyrazol-1-yl}-2-methylbutan-2-ol] | 50 to 500 | > 10 |  | < 50 | 50 to 500 | > 100 |  |  |  |  |  |
| CCOCc1c(-c2c(F)cccc2Cl)noc1-c1cnn(C[C@@H](C)O)c1C(F)(F)F [Example 76, (2R)-1-{4-[3-(2-chloro-6-fluorophenyl)-4-(ethoxymethyl)-1,2-oxazol-5-yl]-5-(trifluoromethyl)-1H-pyrazol-1-yl}propan-2-ol] | 50 to 500 | > 10 |  | < 50 | 50 to 500 | 10 to 40 |  |  |  |  |  |

The remaining lines, values ahead:

| IC50 ([1]; Homo sapiens, PBMC) [nM] | solubility at 24 h [2] [µM] | half-life at 1 μM ([3]; pH 7.4, human liver microsomes, 1 μM compound, 0.5 mg/ml HLM, 37° C.) [min] | IC50 ([4]; Homo sapiens, PBMC) [nM] | IC50 ([5]; Homo sapiens, PBMC) [nM] | half-life at 1 μM [3, 6] [min] | IC50 [1] [nM] | aq. solub. [2] | IC50 [4] [nM] | IC50 [5] [nM] | t1/2 hLM [3, 6] | Compound |
| --- | --- | --- | --- | --- | --- | --- | --- | --- | --- | --- | --- |
| 50 to 500 | > 10 | > 100 | 50 to 500 | 50 to 500 |  |  |  |  |  |  | [2H]C(C)(O)Cn1ncc(-c2onc(-c3c(F)cccc3Cl)c2COC)c1C(F)(F)F (racemic) [Example 95, 1-{4-[3-(2-chloro-6-fluorophenyl)-4-(methoxymethyl)-1,2-oxazol-5-yl]-5-(trifluoromethyl)-1H-pyrazol-1-yl}(2-^2H)propan-2-ol] |
| 50 to 500 | > 10 |  | < 50 | 50 to 500 | > 100 |  |  |  |  |  | CC(C)(O)Cn1ncc(-c2onc(-c3c(F)cccc3Cl)c2-c2nccs2)c1C(F)(F)F [Example 1, 1-(4-(3-(2-chloro-6-fluorophenyl)-4-(thiazol-2-yl)isoxazol-5-yl)-5-(trifluoromethyl)-1H-pyrazol-1-yl)-2-methylpropan-2-ol] |
| 50 to 500 | 3 to 9.99 (≈ 1.45 to 4.84 µg/mL) |  | < 50 | < 50 | 10 to 40 |  |  |  |  |  | OC1(Cn2ncc(-c3onc(-c4c(F)cccc4Cl)c3-c3nccs3)c2C(F)(F)F)CC1 [Example 2, 1-((4-(3-(2-chloro-6-fluorophenyl)-4-(thiazol-2-yl)isoxazol-5-yl)-5-(trifluoromethyl)-1H-pyrazol-1-yl)methyl)cyclopropanol] |
| < 50 | 3 to 9.99 (≈ 1.47 to 4.89 µg/mL) |  | < 50 | < 50 | 40 to 100 |  |  |  |  |  | CCOC(=O)c1c(-c2c(F)cccc2Cl)noc1-c1cnn(CCC(C)(C)O)c1C(F)(F)F [Example 9, ethyl 3-(2-chloro-6-fluorophenyl)-5-[1-(3-hydroxy-3-methylbutyl)-5-(trifluoromethyl)-1H-pyrazol-4-yl]-1,2-oxazole-4-carboxylate] |
| < 50 | 3 to 9.99 (≈ 1.46 to 4.87 µg/mL) |  | < 50 | < 50 | > 100 |  |  |  |  |  | CCOC(=O)c1c(-c2c(F)cccc2Cl)noc1-c1cnn([C@H]2C[C@@](C)(O)C2)c1C(F)(F)F [Example 10, ethyl 3-(2-chloro-6-fluorophenyl)-5-[1-(3-hydroxy-3-methylcyclobutyl)-5-(trifluoromethyl)-1H-pyrazol-4-yl]-1,2-oxazole-4-carboxylate] |
| < 50 | > 10 |  | < 50 | < 50 | 10 to 40 |  |  |  |  |  | CCOC(=O)c1c(-c2c(F)cccc2Cl)noc1-c1cnn(C[C@@H](C)O)c1C(F)(F)F [Example 12, ethyl 3-(2-chloro-6-fluorophenyl)-5-{1-[(2R)-2-hydroxypropyl]-5-(trifluoromethyl)-1H-pyrazol-4-yl}-1,2-oxazole-4-carboxylate] |
| < 50 | > 10 |  | < 50 | < 50 | 40 to 100 |  |  |  |  |  | CCOC(=O)c1c(-c2c(F)cccc2Cl)noc1-c1cnn(C[C@H](C)O)c1C(F)(F)F [Example 13, ethyl 3-(2-chloro-6-fluorophenyl)-5-(1-((2S)-2-hydroxypropyl)-5-(trifluoromethyl)-1H-pyrazol-4-yl)-1,2-oxazole-4-carboxylate] |
| < 50 | > 10 |  | < 50 | < 50 | > 100 |  |  |  |  |  | COC(=O)c1c(-c2c(F)cccc2Cl)noc1-c1cnn(CCC(C)(C)O)c1C [Example 20, methyl 3-(2-chloro-6-fluorophenyl)-5-[1-(3-hydroxy-3-methylbutyl)-5-methyl-1H-pyrazol-4-yl]-1,2-oxazole-4-carboxylate] |
| < 50 | 1 to 2.99 (≈ 0.502 to 1.5 µg/mL) |  | < 50 | < 50 | 2 to 9.99 |  |  |  |  |  | CC(C)(O)Cn1ncc(-c2onc(-c3c(F)cccc3Cl)c2C(=O)OC2CCC2)c1C(F)(F)F [Example 56, cyclobutyl 3-(2-chloro-6-fluorophenyl)-5-[1-(2-hydroxy-2-methylpropyl)-5-(trifluoromethyl)-1H-pyrazol-4-yl]-1,2-oxazole-4-carboxylate] |
| < 50 | > 10 |  | < 50 | < 50 | 10 to 40 |  |  |  |  |  | C[C@H](O)Cn1ncc(-c2onc(-c3c(F)cccc3Cl)c2C(=O)OC2CC2)c1C(F)(F)F [Example 59, cyclopropyl 3-(2-chloro-6-fluorophenyl)-5-{1-[(2S)-2-hydroxypropyl]-5-(trifluoromethyl)-1H-pyrazol-4-yl}-1,2-oxazole-4-carboxylate] |
